Test results published in patent US6540977B1, “Cyanidin compositions and therapeutic and diagnostic uses therefor” (Medarex, Inc., priority 1996, dated 2003).

Target: T1, human FcγRI (Homo sapiens, UniProt P12314)
T1 construct: expressed in transfected cells; host or cells: mouse IIA1.6 B cells
Assay: Staining of IIA1.6 B cell transfectants expressing human FcγRI
Format: binding
Details: unconjugated Cy5; FcγRI transfectants vs untransfected IIA1.6
Method: To assess the specificity of binding of PE-Cy5 conjugates to FcγRI, a series of FcR-transfectants, each transfectant engineered to express one FcR molecular type, was tested. Recipient IIA1.6 cells mouse B cells are devoid of IgG receptors; samples were transfected with each of the genes encoding the different human Fc receptors for IgG (FcγRI, CD64; Van Vugt M J, et al., 1996, Blood 87:3593; FcγRIIa, CD32; FcγRIIb1, CD32, Van den Herik-Oudijk I E, et al., 1995, Blood 85:2202) and for IgA receptor FcαR, CD89 (Morton H C, et al., 1995, J Biol Chem 270:29781) derived from the A20 B cell lymphoma (Morton, H C, et al., supra). Transfectants were stained with different PE-Cy5 mAb conjugates (covalently linked to antibodies to CD3, CD4, or CD8). […]
Untransfected IIA1.6 B-cells and these cells transfected with the gene for human FcγRI (see references, supra), 2×10^5 cells in 20 μl per test, were stained for one hour at 4° C. with 10 μl Cy5. […] All fluorescence experiments were performed using band filter gates for excitation and emission wavelengths appropriate for PE-Cy5 described supra, so that diminished activity for Cy5 in comparison with PE and PE-Cy5 is due to comparatively low absorption by Cy5 at 488 nm.

T1 sequence (P12314 16-374): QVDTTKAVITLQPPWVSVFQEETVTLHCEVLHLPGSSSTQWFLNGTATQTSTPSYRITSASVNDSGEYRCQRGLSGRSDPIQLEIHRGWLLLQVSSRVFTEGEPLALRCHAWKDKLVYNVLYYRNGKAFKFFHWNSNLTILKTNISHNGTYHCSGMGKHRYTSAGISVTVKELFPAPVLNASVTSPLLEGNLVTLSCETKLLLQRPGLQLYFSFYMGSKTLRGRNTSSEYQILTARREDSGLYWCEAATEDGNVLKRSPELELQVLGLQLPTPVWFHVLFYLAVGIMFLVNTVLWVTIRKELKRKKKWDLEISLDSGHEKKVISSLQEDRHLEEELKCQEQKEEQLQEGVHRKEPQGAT

mean fluorescent intensity of transfectants versus control cells: at least an order of magnitude greater
Substance: 5,5′-bis-sulfo-1,1′-(ε-carboxyphenyl)-3,3,3′,3′-tetramethylindodicarbocyanin-disuccinimidyl ester [Cy5]
